# In PubChem BioAssay (NCI):
#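 Each compound was tested at five concentrations against cells in 96-well plates for 48 hours. GI50 is the concentration that inhibits growth by half. TGI: total growth inhibition.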
# Tests used:
# Experiment in all cases: inhibition of tumour cell growth, NCI panel, 48 h
# 786-0 renal = test system: 786-0 renal
# A498 renal = test system: A498 renal
# A549 NSCLC = test system: A549 NSCLC
# ACHN renal = test system: ACHN renal
# CAKI-1 renal = test system: CAKI-1 renal
# COLO 205 colon = test system: COLO 205 colon
# DLD-1 colon = test system: DLD-1 colon
# DMS 114 small cell lung = test system: DMS 114 small cell lung
# DMS 273 small cell lung = test system: DMS 273 small cell lung
# EKVX NSCLC = test system: EKVX NSCLC
# HCC-2998 colon = test system: HCC-2998 colon
# HCT-116 colon = test system: HCT-116 colon
# HCT-15 colon = test system: HCT-15 colon
# HL-60(TB) leukemia = test system: HL-60(TB) leukemia
# HOP-62 NSCLC = test system: HOP-62 NSCLC
# HOP-92 NSCLC = test system: HOP-92 NSCLC
# HT29 colon = test system: HT29 colon
# IGROV1 ovarian = test system: IGROV1 ovarian
# KM12 colon = test system: KM12 colon
# KM20L2 colon = test system: KM20L2 colon
# LOX IMVI melanoma = test system: LOX IMVI melanoma
# LXFL 529 NSCLC = test system: LXFL 529 NSCLC
# M14 melanoma = test system: M14 melanoma
# M19-MEL melanoma = test system: M19-MEL melanoma
# MALME-3M melanoma = test system: MALME-3M melanoma
# MOLT-4 leukemia = test system: MOLT-4 leukemia
# NCI-H226 lung = test system: NCI-H226 lung
# NCI-H23 lung = test system: NCI-H23 lung
# NCI-H460 lung = test system: NCI-H460 lung
# NCI-H522 lung = test system: NCI-H522 lung
# OVCAR-3 ovarian = test system: OVCAR-3 ovarian
# OVCAR-4 ovarian = test system: OVCAR-4 ovarian
# OVCAR-5 ovarian = test system: OVCAR-5 ovarian
# OVCAR-8 ovarian = test system: OVCAR-8 ovarian
# RXF 393 renal = test system: RXF 393 renal
# SF-268 CNS = test system: SF-268 CNS
# SF-295 CNS = test system: SF-295 CNS
# SF-539 CNS = test system: SF-539 CNS
# SK-MEL-2 melanoma = test system: SK-MEL-2 melanoma
# SK-MEL-28 melanoma = test system: SK-MEL-28 melanoma
# SK-MEL-5 melanoma = test system: SK-MEL-5 melanoma
# SK-OV-3 ovarian = test system: SK-OV-3 ovarian
# SN12C renal = test system: SN12C renal
# SNB-19 CNS = test system: SNB-19 CNS
# SNB-75 CNS = test system: SNB-75 CNS
# SNB-78 CNS = test system: SNB-78 CNS
# SR leukemia = test system: SR leukemia
# SW-620 colon = test system: SW-620 colon
# TK-10 renal = test system: TK-10 renal
# U251 CNS = test system: U251 CNS
# UACC-257 melanoma = test system: UACC-257 melanoma
# UACC-62 melanoma = test system: UACC-62 melanoma
# UO-31 renal = test system: UO-31 renal
# XF 498 CNS = test system: XF 498 CNS
structure (smiles),measurement,setting,value
CCC[CH2][Sn]([CH2]CCC)([O]C(=O)c1ccc(C)c(N)c1)[O]C(=O)c1ccc(C)c(N)c1,GI50,786-0 renal,323 nM
same,TGI,786-0 renal,1310 nM
same,GI50,A498 renal,351 nM
same,TGI,A498 renal,1210 nM
same,GI50,A549 NSCLC,2820 nM
same,TGI,A549 NSCLC,8330 nM
same,GI50,ACHN renal,352 nM
same,TGI,ACHN renal,1320 nM
same,GI50,CAKI-1 renal,136 nM
same,TGI,CAKI-1 renal,1380 nM
same,GI50,COLO 205 colon,330 nM
same,TGI,COLO 205 colon,1380 nM
same,GI50,DLD-1 colon,282 nM
same,TGI,DLD-1 colon,1250 nM
same,GI50,DMS 114 small cell lung,132 nM
same,TGI,DMS 114 small cell lung,322 nM
same,GI50,DMS 273 small cell lung,623 nM
same,TGI,DMS 273 small cell lung,1970 nM
same,GI50,EKVX NSCLC,600 nM
same,TGI,EKVX NSCLC,1940 nM
same,GI50,HCC-2998 colon,1140 nM
same,TGI,HCC-2998 colon,2360 nM
same,GI50,HCT-116 colon,527 nM
same,TGI,HCT-116 colon,1860 nM
same,GI50,HCT-15 colon,698 nM
same,TGI,HCT-15 colon,2010 nM
same,GI50,HL-60(TB) leukemia,144 nM
same,TGI,HL-60(TB) leukemia,863 nM
same,GI50,HOP-62 NSCLC,2290 nM
same,TGI,HOP-62 NSCLC,3780 nM
same,GI50,HOP-92 NSCLC,305 nM
same,TGI,HOP-92 NSCLC,1700 nM
same,GI50,HT29 colon,1340 nM
same,TGI,HT29 colon,2640 nM
same,GI50,IGROV1 ovarian,1160 nM
same,TGI,IGROV1 ovarian,2420 nM
same,GI50,KM12 colon,1310 nM
same,TGI,KM12 colon,2610 nM
same,GI50,KM20L2 colon,1500 nM
same,TGI,KM20L2 colon,2820 nM
same,GI50,LOX IMVI melanoma,185 nM
same,TGI,LOX IMVI melanoma,681 nM
same,GI50,LXFL 529 NSCLC,47.3 nM
same,TGI,LXFL 529 NSCLC,176 nM
same,GI50,M14 melanoma,647 nM
same,TGI,M14 melanoma,1920 nM
same,GI50,M19-MEL melanoma,244 nM
same,TGI,M19-MEL melanoma,1280 nM
same,GI50,MALME-3M melanoma,179 nM
same,TGI,MALME-3M melanoma,776 nM
same,GI50,MOLT-4 leukemia,108 nM
same,TGI,MOLT-4 leukemia,643 nM
same,GI50,NCI-H226 lung,334 nM
same,TGI,NCI-H226 lung,1440 nM
same,GI50,NCI-H23 lung,203 nM
same,TGI,NCI-H23 lung,1000 nM
same,GI50,NCI-H460 lung,1430 nM
same,TGI,NCI-H460 lung,2740 nM
same,GI50,NCI-H522 lung,18 nM
same,TGI,NCI-H522 lung,117 nM
same,GI50,OVCAR-3 ovarian,1070 nM
same,TGI,OVCAR-3 ovarian,2260 nM
same,GI50,OVCAR-4 ovarian,1240 nM
same,TGI,OVCAR-4 ovarian,2480 nM
same,GI50,OVCAR-5 ovarian,1820 nM
same,TGI,OVCAR-5 ovarian,3220 nM
same,GI50,OVCAR-8 ovarian,910 nM
same,TGI,OVCAR-8 ovarian,2120 nM
same,GI50,RXF 393 renal,116 nM
same,TGI,RXF 393 renal,511 nM
same,GI50,SF-268 CNS,418 nM
same,TGI,SF-268 CNS,1630 nM
same,GI50,SF-295 CNS,1240 nM
same,TGI,SF-295 CNS,2490 nM
same,GI50,SF-539 CNS,619 nM
same,TGI,SF-539 CNS,1890 nM
same,GI50,SK-MEL-2 melanoma,172 nM
same,TGI,SK-MEL-2 melanoma,720 nM
same,GI50,SK-MEL-28 melanoma,347 nM
same,TGI,SK-MEL-28 melanoma,1570 nM
same,GI50,SK-MEL-5 melanoma,1080 nM
same,TGI,SK-MEL-5 melanoma,2280 nM
same,GI50,SK-OV-3 ovarian,1840 nM
same,TGI,SK-OV-3 ovarian,3240 nM
same,GI50,SN12C renal,537 nM
same,TGI,SN12C renal,1830 nM
same,GI50,SNB-19 CNS,1200 nM
same,TGI,SNB-19 CNS,2430 nM
same,GI50,SNB-75 CNS,502 nM
same,TGI,SNB-75 CNS,1870 nM
same,GI50,SNB-78 CNS,277 nM
same,TGI,SNB-78 CNS,1540 nM
same,GI50,SR leukemia,179 nM
same,TGI,SR leukemia,3620 nM
same,GI50,SW-620 colon,224 nM
same,TGI,SW-620 colon,1040 nM
same,GI50,TK-10 renal,515 nM
same,TGI,TK-10 renal,1660 nM
same,GI50,U251 CNS,287 nM
same,TGI,U251 CNS,1280 nM
same,GI50,UACC-257 melanoma,334 nM
same,TGI,UACC-257 melanoma,1620 nM
same,GI50,UACC-62 melanoma,378 nM
same,TGI,UACC-62 melanoma,1440 nM
same,GI50,UO-31 renal,1110 nM
same,TGI,UO-31 renal,2310 nM
same,GI50,XF 498 CNS,181 nM
same,TGI,XF 498 CNS,353 nM
